We go through 3 compounds from patent US8420637B2, “Abnormal cannabidiols as agents for lowering intraocular pressure” (Allergan, Inc., priority 2006, dated 2013).

The assay relates to Laser-induced unilaterally ocular hypertensive Cynomolgus monkeys. Briefly: Intraocular pressure by applanation pneumatonometry in conscious animals. It is filed as in vivo. Also noted: key: *: one star indicates no potency; ***: three stars indicates a very potent compound. Particulars: topical to one eye, dosed once, IOP measured over the course of 24 hours; female ocular hypertensive Cynomolgus monkeys. On the procedure: Intraocular pressure was measured by applanation pneumatonometry in conscious animals. The test compound was administered topically to one eye while vehicle was given to the fellow eye in a masked fashion. Laser-induced unilaterally ocular hypertensive Cynomolgus monkeys (females) were dosed once and the IOP was measured over the course of 24 hours.
The results are shown in the Table, below wherein the stars indicating the potency of the compound. That is, one star indicates no potency, three stars indicates a very potent compound.

Take `Oc1cc(O)c(C2CCCCC2)c(Cl)c1` [9 (b), 5-Chloro-4-cyclohexylbenzene-1,3-diol]: the Efficacy entry was “***”. Turning to `C=C(C)C1CCC(C)=CC1c1c(O)cc(O)cc1Cl` (stereo not drawn) [Example 5, 5-Chloro-4-(6-Isopropenyl-3-methylcyclohex-2-enyl)benzene-1,3-diol], the Efficacy result is reported as “***”. For `CC1CC(=O)CC(=O)N1C1CCCCC1` (stereo not drawn) [Example 20, 1-Cyclohexyl-6-methylpiperidine-2,4-dione], the Efficacy result is listed as “***”.
